Assay results taken from US20060035820A1, “New derivatives of echinocandine, their preparation process and their use as antifungals” (AVENTIS PHARMA S.A., priority 1999, published 2006).

Biological target: T1, Glucan Synthase of Candida albicans (Candida albicans, UniProt O13428)
T1 construct: endogenous in cells; host or cells: Candida albicans membrane preparation (method of Tang et al. 1991)
Experiment: Inhibition of the Glucan Synthase of Candida albicans
Assay type: biochemical
Conditions: Candida albicans membranes, 14C-UDP glucose, 25° C. for 1 hour
Experimental: A—Inhibition of the Glucan Synthase of Candida albicans.
Candida albicans membranes were purified according to the process described by Tang et al Antimicrob. Agents Chemother 35, 99-103, 1991. 22.5 μg of membrane proteins are incubated in a mixture of 2 Mm of 14C-UDP glucose (specific activity=0.34 mCi./mmol, 50 μg of α-amylase, 1 Mm of dithiotreitol (DTT), 1 Mm EDTA, 100 Mm NaF, 7 μM of GTP-γ-S, 1M of sucrose and 50 Mm of Tris-HCL (pH 7.8) in a volume of 100 μl. The medium is incubated at 25° C. for 1 hour and the reaction is terminated by adding TCA at a final concentration of 5%. The reaction mixture is transferred onto a pre-humidified glass fibre filter. The filter is washed, dried and its radioactivity is counted. Mulundocandine is used as a positive control. Control of the vehicle is carried out with the same quantity of 1% DMSO.

T1 sequence (O13428 1-1897): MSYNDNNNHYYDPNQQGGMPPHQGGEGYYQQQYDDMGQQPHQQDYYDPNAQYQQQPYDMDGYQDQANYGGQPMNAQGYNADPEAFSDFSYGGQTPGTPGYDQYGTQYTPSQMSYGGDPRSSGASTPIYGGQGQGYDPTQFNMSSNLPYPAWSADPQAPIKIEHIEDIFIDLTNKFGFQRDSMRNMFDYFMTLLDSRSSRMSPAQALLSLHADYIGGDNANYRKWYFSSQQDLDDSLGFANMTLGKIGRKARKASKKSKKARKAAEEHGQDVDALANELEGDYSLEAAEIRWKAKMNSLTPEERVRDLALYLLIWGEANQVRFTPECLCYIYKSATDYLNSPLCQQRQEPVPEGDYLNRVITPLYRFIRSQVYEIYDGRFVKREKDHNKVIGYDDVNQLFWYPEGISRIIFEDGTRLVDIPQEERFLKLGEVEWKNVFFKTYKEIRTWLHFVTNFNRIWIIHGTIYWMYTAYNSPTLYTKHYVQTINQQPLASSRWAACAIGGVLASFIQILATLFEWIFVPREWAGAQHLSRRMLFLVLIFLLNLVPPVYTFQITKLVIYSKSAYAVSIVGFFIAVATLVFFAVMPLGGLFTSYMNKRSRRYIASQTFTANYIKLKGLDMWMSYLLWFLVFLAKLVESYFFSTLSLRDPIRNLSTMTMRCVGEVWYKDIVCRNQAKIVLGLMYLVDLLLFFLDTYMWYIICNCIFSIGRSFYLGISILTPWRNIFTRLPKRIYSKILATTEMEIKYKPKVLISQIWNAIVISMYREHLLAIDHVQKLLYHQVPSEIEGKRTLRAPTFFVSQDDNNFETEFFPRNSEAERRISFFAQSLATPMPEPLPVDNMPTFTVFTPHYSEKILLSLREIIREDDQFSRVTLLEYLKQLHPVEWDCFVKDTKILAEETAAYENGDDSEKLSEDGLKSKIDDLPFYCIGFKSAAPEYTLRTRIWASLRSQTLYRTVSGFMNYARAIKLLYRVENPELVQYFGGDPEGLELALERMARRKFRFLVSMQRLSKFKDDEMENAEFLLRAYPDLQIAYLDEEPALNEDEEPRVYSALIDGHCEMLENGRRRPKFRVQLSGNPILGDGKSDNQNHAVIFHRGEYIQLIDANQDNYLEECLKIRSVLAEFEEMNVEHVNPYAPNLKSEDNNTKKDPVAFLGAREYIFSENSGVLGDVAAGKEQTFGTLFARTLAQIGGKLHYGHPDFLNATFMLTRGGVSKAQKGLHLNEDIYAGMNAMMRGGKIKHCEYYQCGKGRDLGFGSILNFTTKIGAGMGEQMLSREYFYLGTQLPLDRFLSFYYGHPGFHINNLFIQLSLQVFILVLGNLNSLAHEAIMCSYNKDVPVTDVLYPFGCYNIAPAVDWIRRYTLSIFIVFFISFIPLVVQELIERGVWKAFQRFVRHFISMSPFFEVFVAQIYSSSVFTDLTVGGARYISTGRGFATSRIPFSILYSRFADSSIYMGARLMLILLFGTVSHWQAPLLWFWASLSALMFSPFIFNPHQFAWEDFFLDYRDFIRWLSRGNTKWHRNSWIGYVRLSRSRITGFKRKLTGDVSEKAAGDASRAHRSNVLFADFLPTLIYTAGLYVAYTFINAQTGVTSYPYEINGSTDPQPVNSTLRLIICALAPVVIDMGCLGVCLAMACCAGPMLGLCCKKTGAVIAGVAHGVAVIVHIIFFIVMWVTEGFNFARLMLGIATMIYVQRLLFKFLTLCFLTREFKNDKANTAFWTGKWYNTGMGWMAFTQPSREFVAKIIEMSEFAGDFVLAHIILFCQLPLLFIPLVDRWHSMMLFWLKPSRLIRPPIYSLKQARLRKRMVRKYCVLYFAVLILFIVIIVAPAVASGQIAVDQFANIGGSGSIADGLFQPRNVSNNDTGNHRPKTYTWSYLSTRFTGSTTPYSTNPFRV
T1 sequence (O42825 1-195 partner limits assumed): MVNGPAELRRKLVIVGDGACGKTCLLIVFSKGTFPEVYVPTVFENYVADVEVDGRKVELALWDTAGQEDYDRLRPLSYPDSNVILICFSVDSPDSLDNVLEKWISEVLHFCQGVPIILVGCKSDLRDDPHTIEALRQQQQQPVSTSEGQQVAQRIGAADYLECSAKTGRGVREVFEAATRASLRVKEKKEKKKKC

Trans 1-[4-[(2-aminocyclo-hexyl)-amino]-N2-[[4″-(pentyloxy)[1,1′:4′,1″-terphenyl]-4-yl)]-carbonyl]-L-ornithine]-4-[4-(4-hydroxyphenyl)-L-threonine]-5-L-serine-echinocandin B trifluoroacetate (isomer A). [Example 3 isomer A]
Inhibition of the glucan synthase of Candida albicans (activity in words): good activity
